Laboratory results published in patent US10183914B2 (BAYER CROPSCIENCE AKTIENGESELLSCHAFT, priority 2014, dated 2019).
Read-outs that look alike come from different tables or passages of the source.

Tests used:
[1] = logp (HCOOH), physicochemical characterization
[2] = tested on: Triticum aestivum (spring); assay: Pre-emergence herbicidal effect and crop plant compatibility; type: in vivo; settings: 3 weeks
Outline: (§1)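 Seeds sown in sandy loam in wood-fiber pots and covered with soil; compounds formulated as WP or EC applied to the soil surface as aqueous suspension or emulsion at 600 to 800 L/ha water with 0.2% wetting agent. Greenhouse growth; visual damage scored after 3 weeks versus untreated controls (0–100%).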

Zea mays [3] = assay: as above; type: in vivo; settings: 3 weeks
Outline: as §1

Alopecurus myosuroides = assay: Pre-emergence herbicidal effect; type: in vivo; settings: 3 weeks
Outline: as §1

Amaranthus retroflexus = assay: Pre-emergence herbicidal effect; type: in vivo; settings: 3 weeks
Outline: as §1

Echinochloa crus-galli [4] = assay: Pre-emergence herbicidal effect; type: in vivo; settings: 3 weeks
Outline: as §1

Ipomoea purpurea [5] = assay: Pre-emergence herbicidal effect; type: in vivo; settings: 3 weeks
Outline: as §1

Lolium multiflorum [6] = assay: Pre-emergence herbicidal effect; type: in vivo; settings: 3 weeks
Outline: as §1

Matricaria inodora = assay: Pre-emergence herbicidal effect; type: in vivo; settings: 3 weeks
Outline: as §1

Polygonum convolvulus = assay: Pre-emergence herbicidal effect; type: in vivo; settings: 3 weeks
Outline: as §1

Setaria viridis [7] = assay: Pre-emergence herbicidal effect; type: in vivo; settings: 3 weeks
Outline: as §1

Stellaria media = assay: Pre-emergence herbicidal effect; type: in vivo; settings: 3 weeks
Outline: as §1

Veronica persica = assay: Pre-emergence herbicidal effect; type: in vivo; settings: 3 weeks
Outline: as §1

Viola tricolor = assay: Pre-emergence herbicidal effect; type: in vivo; settings: 3 weeks
Outline: as §1

Oryza sativa [8] = assay: Pre-emergence herbicidal effect and crop plant compatibility; type: in vivo; settings: 3 weeks
Outline: as §1

Abutilon theophrasti = assay: Pre-emergence herbicidal effect; type: in vivo; settings: 3 weeks
Outline: as §1

Avena fatua = assay: Pre-emergence herbicidal effect; type: in vivo; settings: 3 weeks
Outline: as §1

Oryza sativa [9] = assay: Post-emergence herbicidal effect and crop plant compatibility; type: in vivo; settings: visual scoring after about 3 weeks
Outline: (§2)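 After growing for 2 to 3 weeks from seed in sandy loam, plants at the one-leaf stage get an aqueous spray of the formulated compound containing 0.2% wetting agent. Around three weeks later each pot is assessed by eye, expressed as percent effect compared with untreated plants.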

Echinochloa crus-galli [10] = assay: Post-emergence herbicidal effect; type: in vivo; settings: visual scoring after about 3 weeks
Procedure: (§3) Seeds of monocotyledonous and dicotyledonous weed and crop plants are laid out in sandy loam in wood-fiber pots, covered with soil and cultivated in a greenhouse under good growth conditions. 2 to 3 weeks after sowing, the test plants are treated at the one-leaf stage. The compounds of the invention, formulated in the form of wettable powders (WP) or as emulsion concentrates (EC), are then sprayed onto the green parts of the plants as aqueous suspension or emulsion at a water application rate equating to 600 to 800 L/ha with addition of 0.2% wetting agent. After the trial plants have been left to stand in a greenhouse under optimal growth conditions for about 3 weeks, the efficacy of the formulations is scored visually in comparison to untreated controls (herbicidal action in percent (%): 100% efficacy=the plants have died, 0% efficacy=like control plants).

Lolium multiflorum [11] = assay: Post-emergence herbicidal effect; type: in vivo; settings: 320 g/ha, visual scoring after about 3 weeks
Procedure: as §3

Setaria viridis [12] = assay: Post-emergence herbicidal effect; type: in vivo; settings: scoring after about 3 weeks
Procedure: as §3

Cyperus esculentus = assay: Pre-emergence herbicidal effect; type: in vivo; settings: 3 weeks
Outline: as §1

[13] = tested on: Triticum aestivum (spring); assay: Post-emergence herbicidal effect and crop plant compatibility; type: in vivo; settings: visual scoring after about 3 weeks
Outline: as §2

Zea mays [14] = assay: as above; type: in vivo; settings: visual scoring after about 3 weeks
Outline: as §2

Ipomoea purpurea [15] = assay: Post-emergence herbicidal effect; type: in vivo; settings: 320 g/ha (dose by row order of upper half), scoring after about 3 weeks
Procedure: as §3

[16] = 320 g/ha (dose by row order of upper half)

Compound	TRZAS herbicidal activity in percent ([2]; 80 g/ha)	ZEAMX herbicidal activity in percent (Zea mays [3]; 80 g/ha)	ZEAMX herbicidal activity in percent (Zea mays [3]; 320 g/ha)	ALOMY herbicidal activity in percent (Alopecurus myosuroides; 320 g/ha)	AMARE herbicidal activity in percent (Amaranthus retroflexus; 320 g/ha)	ECHCG herbicidal activity in percent (Echinochloa crus-galli [4]; 320 g/ha)	PHBPU herbicidal activity in percent (Ipomoea purpurea [5]; 320 g/ha)	LOLMU herbicidal activity in percent (Lolium multiflorum [6]; 320 g/ha)	MATIN herbicidal activity in percent (Matricaria inodora; 80 g/ha)	MATIN herbicidal activity in percent (Matricaria inodora; 320 g/ha)	POLCO herbicidal activity in percent (Polygonum convolvulus; 320 g/ha)	SETVI herbicidal activity in percent (Setaria viridis [7]; 320 g/ha)	STEME herbicidal activity in percent (Stellaria media; 80 g/ha)	STEME herbicidal activity in percent (Stellaria media; 320 g/ha)	VERPE herbicidal activity in percent (Veronica persica; 80 g/ha)	VERPE herbicidal activity in percent (Veronica persica; 320 g/ha)	VIOTR herbicidal activity in percent (Viola tricolor; 320 g/ha)	logp (HCOOH) [1]	post-emergence efficacy ORYSA (Oryza sativa [9]; 320 g/ha)	post-emergence efficacy ECHCG (Echinochloa crus-galli [10]; 320 g/ha)	also measured
CC(=O)c1cnc(NC2CCOc3c(C)cccc32)nc1 (racemic) [1.7]	0%	0%	20%	100%	100%	90%	100%	100%	90%	100%	90%	90%	80%	100%	100%	100%	100%	–	–	–	logp (HCOOH) ([1]; HCOOH): solid; m.p.: 167-168° C.; logp (HCOOH): 2.54; 1H-NMR (CDCl3, 400 MHZ, δ in; TRZAS herbicidal activity in percent ([2]; 320 g/ha): 0%; ALOMY herbicidal activity in percent (Alopecurus myosuroides; 80 g/ha): 80%
O=C1CCCc2nc(NC3CCc4ccccc43)ncc21 (racemic) [2.91]	–	–	20%	90%	100%	100%	100%	100%	–	100%	80%	100%	–	100%	–	100%	100%	oily; logp (HCOOH): 2.62; 1H-NMR (CDCl3, 400 MHZ, δ in ppm): 1.25 (m, 1H, 1H	0%	100%	ORYSA herbicidal activity in percent (Oryza sativa [8]; 320 g/ha): 20%; ABUTH herbicidal activity in percent (Abutilon theophrasti; 320 g/ha): 100%; AVEFA herbicidal activity in percent (Avena fatua; 320 g/ha): 80%; post-emergence efficacy LOLMU (Lolium multiflorum [11]): 100%; post-emergence efficacy SETVI (Setaria viridis [12]; [16]): 90%
CC(=O)c1cnc(N[C@@H]2CCOc3ccccc32)nc1 [1.4]	–	–	–	100%	100%	90%	100%	–	100%	100%	100%	90%	90%	100%	100%	100%	100%	oily; logp (HCOOH): 2.03; 1H-NMR (CDCL3, 400 MHZ, δ in ppm): 2.15 (m, 1H, 1H	–	–	ALOMY herbicidal activity in percent (Alopecurus myosuroides; 80 g/ha): 100%; AMARE herbicidal activity in percent (Amaranthus retroflexus; 80 g/ha): 100%; AVEFA herbicidal activity in percent (Avena fatua; 80 g/ha): 100%; AVEFA herbicidal activity in percent (Avena fatua; 320 g/ha): 100%; CYPES herbicidal activity in percent (Cyperus esculentus; 80 g/ha): 80%; CYPES herbicidal activity in percent (Cyperus esculentus; 320 g/ha): 100%; POLCO herbicidal activity in percent (Polygonum convolvulus; 80 g/ha): 100%; VIOTR herbicidal activity in percent (Viola tricolor; 80 g/ha): 100%
CC(=O)c1cnc(NC2CCOc3ccccc32)nc1C (centres unmarked) [1.83, 1-[2-(3,4-Dihydro-2H-chromen-4-ylamino)-4-methylpyrimidin-5-yl]ethanone]	–	–	–	–	–	–	–	–	–	–	–	–	–	–	–	–	–	–	–	–	chromatographic logP ([1]; HCOOH (formic acid)): 2.44; ABUTH herbicidal activity in percent (Abutilon theophrasti; 1280 g/ha): 100%; ALOMY herbicidal activity in percent (Alopecurus myosuroides; 1280 g/ha): 100%; AMARE herbicidal activity in percent (Amaranthus retroflexus; 1280 g/ha): 100%; AVEFA herbicidal activity in percent (Avena fatua; 1280 g/ha): 90%; ECHCG herbicidal activity in percent (Echinochloa crus-galli [4]; 1280 g/ha): 100%; PHBPU herbicidal activity in percent (Ipomoea purpurea [5]; 1280 g/ha): 100%; LOLMU herbicidal activity in percent (Lolium multiflorum [6]; 1280 g/ha): 100%; MATIN herbicidal activity in percent (Matricaria inodora; 1280 g/ha): 100%; POLCO herbicidal activity in percent (Polygonum convolvulus; 1280 g/ha): 100%; SETVI herbicidal activity in percent (Setaria viridis [7]; 1280 g/ha): 100%; STEME herbicidal activity in percent (Stellaria media; 1280 g/ha): 100%; VERPE herbicidal activity in percent (Veronica persica; 1280 g/ha): 100%; VIOTR herbicidal activity in percent (Viola tricolor; 1280 g/ha): 100%
O=C1CC(c2ccccc2F)Cc2nc(N[C@@H]3CCCc4ccccc43)ncc21 (some centres unmarked) [2.93]	–	–	–	–	–	–	–	–	–	–	–	–	–	–	–	–	–	oily; logp (HCOOH): 4.38; 1H-NMR (CDCl3, 400 MHZ, δ in ppm): 1.95 (m, 3H, 2H	–	–	ORYSA herbicidal activity in percent (Oryza sativa [8]; 1280 g/ha): 20%; TRZAS herbicidal activity in percent ([2]; 1280 g/ha): 0%; ZEAMX herbicidal activity in percent (Zea mays [3]; 1280 g/ha): 0%; AMARE herbicidal activity in percent (Amaranthus retroflexus; 1280 g/ha): 80%; CYPES herbicidal activity in percent (Cyperus esculentus; 1280 g/ha): 100%; PHBPU herbicidal activity in percent (Ipomoea purpurea [5]; 1280 g/ha): 90%; STEME herbicidal activity in percent (Stellaria media; 1280 g/ha): 100%; VERPE herbicidal activity in percent (Veronica persica; 1280 g/ha): 100%; VIOTR herbicidal activity in percent (Viola tricolor; 1280 g/ha): 80%
Cc1cccc2c1OCC[C@H]2Nc1ncc2c(n1)CCCC2=O [2.100]	0%	0%	10%	80%	100%	100%	–	100%	100%	100%	90%	100%	100%	100%	100%	100%	100%	–	0%	100%	TRZAS herbicidal activity in percent ([2]; 320 g/ha): 10%; ABUTH herbicidal activity in percent (Abutilon theophrasti; 320 g/ha): 90%; AMARE herbicidal activity in percent (Amaranthus retroflexus; 80 g/ha): 100%; ECHCG herbicidal activity in percent (Echinochloa crus-galli [4]; 80 g/ha): 100%; POLCO herbicidal activity in percent (Polygonum convolvulus; 80 g/ha): 90%; SETVI herbicidal activity in percent (Setaria viridis [7]; 80 g/ha): 100%; VIOTR herbicidal activity in percent (Viola tricolor; 80 g/ha): 100%; post-emergence efficacy ORYSA (Oryza sativa [9]; 80 g/ha): 0%; post-emergence efficacy TRZAS ([13]; 80 g/ha): 10%; post-emergence efficacy TRZAS ([13]; 320 g/ha): 20%; post-emergence efficacy ZEAMX (Zea mays [14]; 80 g/ha): 10%; post-emergence efficacy ZEAMX (Zea mays [14]; 320 g/ha): 10%; post-emergence efficacy ECHCG (Echinochloa crus-galli [10]; 80 g/ha): 100%; post-emergence efficacy LOLMU (Lolium multiflorum [11]): 100%; post-emergence efficacy SETVI (Setaria viridis [12]; 80 g/ha (dose by row order of upper half)): 90%; post-emergence efficacy SETVI (Setaria viridis [12]; [16]): 90%
Cc1ccc2c(c1)[C@H](Nc1ncc3c(n1)CCCC3=O)[C@@H](C)C2 [2.118]	0%	0%	0%	90%	100%	100%	–	100%	90%	100%	100%	100%	100%	100%	100%	100%	100%	oily; logp (HCOOH): 4.51; 1H-NMR (CDCl3, 400 MHZ, δ in ppm): 1.25 (d, 3H, 3H	0%	100%	ORYSA herbicidal activity in percent (Oryza sativa [8]; 80 g/ha): 10%; ORYSA herbicidal activity in percent (Oryza sativa [8]; 320 g/ha): 10%; AMARE herbicidal activity in percent (Amaranthus retroflexus; 80 g/ha): 100%; LOLMU herbicidal activity in percent (Lolium multiflorum [6]; 80 g/ha): 80%; SETVI herbicidal activity in percent (Setaria viridis [7]; 80 g/ha): 100%; VIOTR herbicidal activity in percent (Viola tricolor; 80 g/ha): 100%; post-emergence efficacy ORYSA (Oryza sativa [9]; 80 g/ha): 0%; post-emergence efficacy TRZAS ([13]; 80 g/ha): 0%; post-emergence efficacy ZEAMX (Zea mays [14]; 80 g/ha): 0%; post-emergence efficacy ZEAMX (Zea mays [14]; 320 g/ha): 10%; post-emergence efficacy PHBPU (Ipomoea purpurea [15]): 100%; post-emergence efficacy LOLMU (Lolium multiflorum [11]): 80%; post-emergence efficacy SETVI (Setaria viridis [12]; [16]): 80%
